Peptide text beside a SMILES is read from it.
Legend:
[1] = Ionization constant was determined; type: physicochemical
[2] = Inhibition of Cl- dependent binding sites of AP4 receptor labeled with [3H]- glutamic acid
[3] = Inhibition of specific brain peptidase

| Ki [2] [nM] | Structure (SMILES) | pKa [1] | IC50 [3] [nM] |
| --- | --- | --- | --- |
| – | NC(CN1CC(=O)NC1=O)C(=O)O (centres undefined) | 8.2 | – |
| 420 | CC(=O)NC(CC(=O)O)C(=O)NC(CCC(=O)O)C(=O)O (stereo not drawn) (Ac-Asp-Glu-OH; configuration not given here) | – | – |
| – | N[C@@H](Cn1oc(=O)[nH]c1=O)C(=O)O [QUISQUALATE] | 4.2 | 480 |
